Data: ChEMBL document CHEMBL1143514 (Bioorg Med Chem Lett, 2005)

Tests used:
[1] = biological target: Cyclin-dependent kinase 1/cyclin B (Homo sapiens, UniProt P06493); experiment: Inhibitory concentration against human Cyclin B-cyclin-dependent kinase 1 was observed; format: protein-complex assay
[2] = biological target: Cyclin-dependent kinase 2/cyclin E (Homo sapiens, UniProt P24941); experiment: Inhibitory concentration against human Cyclin E-cyclin-dependent kinase 2 was observed; format: protein-complex assay
[3] = biological target: Cyclin-dependent kinase 4/cyclin D1 (Homo sapiens, UniProt P11802); experiment: Inhibitory concentration against human Cyclin D1-cyclin-dependent kinase 4 was observed; format: protein-complex assay
HCT-116 = experiment: Inhibitory concentration against proliferation of human HCT116 cells was observed by MTT assay; format: functional, cell-based

Chain of Cyclin-dependent kinase 4/cyclin D1 (P11802 whole entry): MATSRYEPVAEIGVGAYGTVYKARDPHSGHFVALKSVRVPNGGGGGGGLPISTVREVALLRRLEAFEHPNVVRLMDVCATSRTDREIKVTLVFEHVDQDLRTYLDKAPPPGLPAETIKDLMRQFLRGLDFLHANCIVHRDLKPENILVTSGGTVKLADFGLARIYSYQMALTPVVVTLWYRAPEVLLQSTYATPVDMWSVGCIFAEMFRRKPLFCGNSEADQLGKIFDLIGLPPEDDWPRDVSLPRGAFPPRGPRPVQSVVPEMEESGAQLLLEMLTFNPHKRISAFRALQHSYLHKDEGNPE
Chain of Cyclin-dependent kinase 4/cyclin D1 (P24385 whole entry, further chain): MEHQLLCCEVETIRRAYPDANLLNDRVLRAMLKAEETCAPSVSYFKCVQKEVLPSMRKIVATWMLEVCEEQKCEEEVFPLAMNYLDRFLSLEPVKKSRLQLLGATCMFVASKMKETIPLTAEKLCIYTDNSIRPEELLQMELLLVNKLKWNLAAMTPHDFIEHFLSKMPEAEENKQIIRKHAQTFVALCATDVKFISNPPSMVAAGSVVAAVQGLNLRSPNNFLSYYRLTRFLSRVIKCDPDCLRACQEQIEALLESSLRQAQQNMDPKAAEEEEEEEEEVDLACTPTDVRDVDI

Row | SMILES | IC50 [1] | IC50 [2] | IC50 [3] | IC50 (HCT-116)
1 | O=C(NS(=O)(=O)c1ccc(Nc2cn3cc(C(=O)c4c(Cl)cccc4Cl)ccc3n2)cc1)c1ccccc1 | 250 nM | 670 nM | 3840 nM | 
2 | N=C(N)NS(=O)(=O)c1ccc(Nc2cn3cc(C(=O)c4c(Cl)cccc4Cl)ccc3n2)cc1 | 160 nM | 250 nM | 1290 nM | 
3 | CN(C)S(=O)(=O)c1ccc(Nc2cn3cc(C(=O)c4c(Cl)cccc4Cl)ccc3n2)cc1 | 970 nM | 1540 nM | 2160 nM | 
4 | CSc1ccc(Nc2cn3cc(C(=O)c4c(Cl)cccc4Cl)ccc3n2)cc1 | 3040 nM | 13800 nM | 7400 nM | 
5 | O=C(c1ccc2nc(Nc3ccc(Oc4ccccc4)cc3)cn2c1)c1c(Cl)cccc1Cl | > 20000 nM | > 20000 nM | > 20000 nM | 
6 | CS(=O)(=O)c1ccc(Nc2cn3cc(C(=O)c4c(Cl)cccc4Cl)ccc3n2)cc1 | 520 nM | 1210 nM | 1220 nM | 

The remaining lines, values ahead:

Row | IC50 [1] | IC50 [2] | IC50 [3] | IC50 (HCT-116) | SMILES
7 | > 20000 nM | > 20000 nM | > 20000 nM |  | O=C(c1ccc2nc(Nc3ccncc3)cn2c1)c1c(Cl)cccc1Cl
8 | 9260 nM | 12100 nM | > 20000 nM |  | CN(C)S(=O)(=O)c1cccc(Nc2cn3cc(C(=O)c4c(Cl)cccc4Cl)ccc3n2)c1
9 | 1920 nM | 2720 nM | 3950 nM |  | NC(=O)c1cccc(Nc2cn3cc(C(=O)c4c(Cl)cccc4Cl)ccc3n2)c1
10 | 390 nM |  | 1340 nM | 5500 nM | NS(=O)(=O)c1ccc(Nc2cn3cc(C(=O)c4c(Cl)cccc4Cl)ccc3n2)cc1
11 | 450 nM | 740 nM | 4990 nM |  | O=C(O)c1ccc(Nc2cn3cc(C(=O)c4c(Cl)cccc4Cl)ccc3n2)cc1
12 | 4800 nM | 17700 nM | 11900 nM |  | CSc1cccc(Nc2cn3cc(C(=O)c4c(Cl)cccc4Cl)ccc3n2)c1
13 | 580 nM | 1630 nM | 1610 nM |  | NC(=O)c1ccc(Nc2cn3cc(C(=O)c4c(Cl)cccc4Cl)ccc3n2)cc1
14 | 1700 nM | 2860 nM | 3140 nM |  | CS(=O)(=O)c1cccc(Nc2cn3cc(C(=O)c4c(Cl)cccc4Cl)ccc3n2)c1
